Experimental data reported in patent US20110288086A1, “POLYCYCLIC QUINAZOLINES, PREPARATION THEREOF, AND USE THEREOF” (priority 2010, published 2011).
Converted amounts (≈) assume the structure as drawn.

How the values were obtained:
[1] = system: Hut78 T-Lymphocytic Leukemia cells; assay: Tumor cell inhibition ratio, CCK-8 kit, Hut78; conditions: Homo sapiens, HuT78, read-out: Antiproliferative effect (inhibition ratio) Hut-78
From the text: (§3) The inhibitory activities of the compounds on tumor cells in vitro

[2] = system: Hut78 T-Lymphocytic Leukemia cells; assay: Tumor cell IC50, CCK-8 kit, Hut78; assay type: cell-based; conditions: Homo sapiens, Hut-78 cells
From the text: (§1) The inhibitory activities of the compounds on tumor cells (IC50) in vitro
(§2) The IC50 (IC50, unit: μg/ml) values of the compounds on Hut78 T-Lymphocytic Leukemia cells, Jurkat E6-1 human T-cell lymphoma, PANC-1 human pancreatic cancer cells, A549 human lung cancer cells, K562 human chronicity marrow leukemic cells, Hep3B2. 1-7 human hepatoma carcinoma cells, MDA-MB-435s human breast carcinoma cells, Colo320 human rectal cancer cells, PC-3 human carcinoma of prostate, and HepG2 human hepatoma carcinoma cells were determined using a CCK-8 kit. Erlotinib hydrochloride was used as the positive control drug.

[3] = system: PC-3 human carcinoma of prostate; assay: Tumor cell inhibition ratio, CCK-8 kit, PC-3; conditions: read-out: Antiproliferative effect (inhibition ratio) PC-3
From the text: as §3

[4] = system: Jurkat E6-1 human T-cell lymphoma; assay: Tumor cell IC50, CCK-8 kit, Jurkat E6-1; assay type: cell-based; conditions: E6-1 cells
From the text: as §1, §2

[5] = system: A549 human lung cancer cells; assay: Tumor cell IC50, CCK-8 kit, A549; assay type: cell-based
From the text: as §1, §2

[6] = system: K562 human chronicity marrow leukemic cells; assay: Tumor cell IC50, CCK-8 kit, K562; assay type: cell-based
From the text: as §1, §2

[7] = system: Hep3B2. 1-7 human hepatoma carcinoma cells; assay: Tumor cell IC50, CCK-8 kit, Hep3B; assay type: cell-based
From the text: as §1, §2

[8] = system: PANC-1 human pancreatic cancer cells; assay: Tumor cell inhibition ratio, CCK-8 kit, PANC-1; conditions: PANC-1, read-out: Antiproliferative effect (inhibition ratio) PANC-1
From the text: as §3

[9] = system: Jurkat E6-1 human T-cell lymphoma; assay: Tumor cell inhibition ratio, CCK-8 kit, Jurkat E6-1; conditions: Jurkat E6.1, read-out: Antiproliferative effect (inhibition ratio) E6-1
From the text: as §3

[10] = system: PANC-1 human pancreatic cancer cells; assay: Tumor cell IC50, CCK-8 kit, PANC-1; assay type: cell-based; conditions: PANC-1 cells
From the text: as §1, §2

EGFR tyrosine kinase = EGFR tyrosine kinase (Homo sapiens, UniProt P00533); assay: EGFR tyrosine kinase inhibition in vitro (Invitrogen EGFR inhibitor screening kit PV3193)
Chain of EGFR tyrosine kinase (P00533 25-1210): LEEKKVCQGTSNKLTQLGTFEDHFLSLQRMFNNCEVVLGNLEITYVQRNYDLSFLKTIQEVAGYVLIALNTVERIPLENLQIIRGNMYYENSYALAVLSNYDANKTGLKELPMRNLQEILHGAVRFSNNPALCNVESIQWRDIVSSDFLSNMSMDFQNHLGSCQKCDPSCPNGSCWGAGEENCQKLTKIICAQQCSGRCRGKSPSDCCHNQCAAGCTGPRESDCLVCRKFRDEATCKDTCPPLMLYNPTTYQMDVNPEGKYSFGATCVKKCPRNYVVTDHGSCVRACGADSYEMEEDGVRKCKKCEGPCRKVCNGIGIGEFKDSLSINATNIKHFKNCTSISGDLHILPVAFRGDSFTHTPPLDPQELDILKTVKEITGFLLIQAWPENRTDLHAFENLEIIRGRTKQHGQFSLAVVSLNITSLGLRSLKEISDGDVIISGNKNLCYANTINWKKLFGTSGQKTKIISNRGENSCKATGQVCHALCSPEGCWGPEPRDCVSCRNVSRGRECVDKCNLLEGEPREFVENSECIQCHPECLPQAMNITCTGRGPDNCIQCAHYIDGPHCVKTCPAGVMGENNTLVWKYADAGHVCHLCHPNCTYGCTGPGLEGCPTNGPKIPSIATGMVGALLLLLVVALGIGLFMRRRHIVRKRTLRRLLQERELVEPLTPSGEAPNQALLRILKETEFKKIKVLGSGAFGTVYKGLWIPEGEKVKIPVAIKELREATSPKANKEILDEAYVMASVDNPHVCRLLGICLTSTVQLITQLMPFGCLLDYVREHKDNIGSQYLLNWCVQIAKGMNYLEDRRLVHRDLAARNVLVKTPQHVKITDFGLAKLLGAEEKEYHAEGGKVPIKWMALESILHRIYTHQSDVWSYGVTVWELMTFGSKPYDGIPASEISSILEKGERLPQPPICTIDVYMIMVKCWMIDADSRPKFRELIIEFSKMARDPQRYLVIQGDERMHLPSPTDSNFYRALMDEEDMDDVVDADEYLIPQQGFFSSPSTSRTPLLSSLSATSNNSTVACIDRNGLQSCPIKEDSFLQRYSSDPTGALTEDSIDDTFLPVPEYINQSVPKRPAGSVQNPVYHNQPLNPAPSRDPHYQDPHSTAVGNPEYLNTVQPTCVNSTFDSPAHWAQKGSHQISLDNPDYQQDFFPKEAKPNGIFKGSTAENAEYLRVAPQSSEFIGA
From the text: The inhibitory activities of EGFR tyrosine kinase in vitro
Erlotinib hydrochloride was used as a positive control drug.

[11] = system: PC-3 human carcinoma of prostate; assay: Tumor cell IC50, CCK-8 kit, PC-3; assay type: cell-based; conditions: PC-3 cells
From the text: as §1, §2

[12] = system: Colo320 human rectal cancer cells; assay: Tumor cell inhibition ratio, CCK-8 kit, Colo320; conditions: COLO 320, read-out: Antiproliferative effect (inhibition ratio) Colo320
From the text: as §3

[13] = system: MDA-MB-435s human breast carcinoma cells; assay: Tumor cell IC50, CCK-8 kit, MDA-MB-435s; assay type: cell-based; conditions: 435s cells
From the text: as §1, §2

[14] = system: K562 human chronicity marrow leukemic cells; assay: Tumor cell inhibition ratio, CCK-8 kit, K562; conditions: K562, read-out: Antiproliferative effect (inhibition ratio) K562
From the text: as §3

Acute Toxicity Study = conditions: in vivo; preliminary screening, Bliss statistical method
Method: The acute toxicity experiments were carried out according to the methods disclosed in the book of Modern Pharmacological Methods, edited chiefly by Zhang Jun-Tian.

[15] = system: Hep3B2.1-7 human hepatoma carcinoma cells; assay: Tumor cell inhibition ratio, CCK-8 kit, Hep3B; conditions: read-out: Antiproliferative effect (inhibition ratio) Hep3B
From the text: as §3

[16] = system: A549 human lung cancer cells; assay: Tumor cell inhibition ratio, CCK-8 kit, A549; conditions: A549, read-out: Antiproliferative effect (inhibition ratio) A549
From the text: as §3

[17] = system: MDA-MB-435s human breast carcinoma cells; assay: Tumor cell inhibition ratio, CCK-8 kit, MDA-MB-435s; conditions: read-out: Antiproliferative effect (inhibition ratio) 435s
From the text: as §3

aurora kinase B = target: T1, aurora kinase B (Homo sapiens, UniProt Q96GD4); assay: Aurora kinase B inhibition in vitro (Invitrogen aurora kinase screening kit PV3174); assay type: biochemical
T1 construct: purchased Invitrogen PV3174
T1 sequence (Q96GD4 whole entry): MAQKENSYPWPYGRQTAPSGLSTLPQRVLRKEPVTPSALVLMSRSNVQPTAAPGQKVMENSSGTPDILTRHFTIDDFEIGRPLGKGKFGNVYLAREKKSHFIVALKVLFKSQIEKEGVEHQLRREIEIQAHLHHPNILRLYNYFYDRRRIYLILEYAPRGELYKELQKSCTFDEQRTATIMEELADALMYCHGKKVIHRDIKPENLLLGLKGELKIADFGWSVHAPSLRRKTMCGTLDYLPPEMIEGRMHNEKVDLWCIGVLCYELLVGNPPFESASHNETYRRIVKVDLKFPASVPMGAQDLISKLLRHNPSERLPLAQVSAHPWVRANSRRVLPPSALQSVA

[18] = system: Colo320 human rectal cancer cells; assay: Tumor cell IC50, CCK-8 kit, Colo320; assay type: cell-based; conditions: COLO 320
From the text: as §1, §2

SMILES | inhibition at 10 µM [1] [%] | inhibition at 100 µM [1] [%] | IC50 [2] [µg/mL] | inhibition at 10 µM [3] [%] | inhibition at 100 µM [3] [%] | IC50 [4] [µg/mL] | IC50 [5] [µg/mL] | IC50 [6] [µg/mL] | IC50 [7] [µg/mL] | inhibition at 10 µM [8] [%] | inhibition at 100 µM [8] [%] | inhibition at 10 µM [9] [%] | inhibition at 100 µM [9] [%] | IC50 [10] [µg/mL] | The inhibition ratio of the compound on EGFR(%) (EGFR tyrosine kinase; 40 μM) | The inhibition ratio of the compound on EGFR(%) (EGFR tyrosine kinase; 200 μM) | IC50 [11] [µg/mL] | inhibition at 10 µM [12] [%] | inhibition at 100 µM [12] [%] | IC50 [13] [µg/mL] | further results
COCCOc1cc2c(cc1OCCOC)C1=Nc3cc(Cl)ccc3C(C)N1C=N2.O=C(O)CC(O)C(=O)O (centres unmarked) [Compound V-22, 11-chloro-8-methyl-2,3-bis(2-methoxyethoxy)-8H-quinazolino[4,3-b]quinazoline malate] | 54.1 | 94.6 | 11.4 | 64 | 97 | 13.3 | 9.87 | 19.6 | 14.4 | 60.9 | 95.4 | 67 | 98 | 84.3 | 63.2 | 95.6 | 7.69 | 43.8 | 99 | 6.18 | inhibition at 10 µM [14]: 23.1%; inhibition at 100 µM [14]: 88.8%; LD50 (Acute Toxicity Study): 1340 mg/kg; inhibition at 10 µM [15]: 62.3%; inhibition at 100 µM [15]: 90.7%; inhibition at 10 µM [16]: 54.6%; inhibition at 100 µM [16]: 96.2%; inhibition at 10 µM [17]: 63.4%; inhibition at 100 µM [17]: 94.1%; The inhibition ratio of the compound on Aurora B(%) (aurora kinase B; 40 μM): 57.2%; The inhibition ratio of the compound on Aurora B(%) (aurora kinase B; 200 μM): 95.6%; IC50 [18]: 4.67 µg/mL
COCCOc1cc2c(cc1OCCOC)C1=Nc3cc(COS(C)(=O)=O)cc([N+](=O)[O-])c3CN1C=N2.Cl [Compound V-20, mesylate-{9-nitro-2,3-bis(2-methoxyethoxy)-8H-quinazolino[4,3-b]quinazoline-11-methanol}ester hydrochloride] | 52.3 | 82.1 | 55.3 | 46.8 | 75.2 | 0.05 | 12.1 | 10.1 | 71.4 | 54.8 | 88.2 | 57.9 | 95.6 | 3.72 | 59.9 | 98.4 | 22.7 | 66.9 | 92.3 | 16.8 | inhibition at 10 µM [14]: 40.7%; inhibition at 100 µM [14]: 97.4%; LD50 (Acute Toxicity Study): 750 mg/kg; inhibition at 10 µM [15]: 60.7%; inhibition at 100 µM [15]: 92.2%; inhibition at 10 µM [16]: 55%; inhibition at 100 µM [16]: 90.7%; inhibition at 10 µM [17]: 65.7%; inhibition at 100 µM [17]: 93.9%; The inhibition ratio of the compound on Aurora B(%) (aurora kinase B; 40 μM): 58.9%; The inhibition ratio of the compound on Aurora B(%) (aurora kinase B; 200 μM): 96.4%; IC50 [18]: 13.1 µg/mL
COCCOc1cc2c(cc1OCCOC)C1=Nc3cc(Cl)ccc3CN1C=N2 [Compound V-15, 11-chloro-2,3-bis(2-methoxyethoxy)-8H-quinazolino[4,3-b]quinazoline] | 61 | 93.2 | 14.3 (≈ 34.5 µM) | 42.4 | 81.3 | 5.72 (≈ 13.8 µM) | 1.01 (≈ 2.43 µM) | 1.5 (≈ 3.61 µM) | 6.91 (≈ 16.6 µM) | 61.8 | 94.1 | 69.5 | 85.8 | 8.32 (≈ 20 µM) | 60.7 | 94.0 | 24.6 (≈ 59.2 µM) | 58.3 | 96.5 | 21 (≈ 50.5 µM) | inhibition at 10 µM [14]: 45.2%; inhibition at 100 µM [14]: 91.5%; LD50 (Acute Toxicity Study): 2970 mg/kg; inhibition at 10 µM [15]: 52.4%; inhibition at 100 µM [15]: 97.4%; inhibition at 10 µM [16]: 75.6%; inhibition at 100 µM [16]: 90.8%; inhibition at 10 µM [17]: 72.6%; inhibition at 100 µM [17]: 92%; The inhibition ratio of the compound on Aurora B(%) (aurora kinase B; 40 μM): 58.7%; The inhibition ratio of the compound on Aurora B(%) (aurora kinase B; 200 μM): 92.5%; IC50 [18]: 55.6 µg/mL (≈ 134 µM)
CS(=O)(=O)CCNCc1ccc(-c2ccc3c(c2)C2=Nc4ccc(OCc5cccc(F)c5)c(Cl)c4CN2C=N3)o1 [Compound V-33, N-((5-(9-chloro-10-(3-fluorobenzyloxy)-8H-quinazolino[4,3-b]quinazoline-2-yl)furan-2-yl)methyl)-2-(methylsulfonyl)ethylamine] | 61 | 92.8 | 13.4 (≈ 22.6 µM) | 16.5 | 78.2 | 15.4 (≈ 25.9 µM) | 0.05 (≈ 0.0843 µM) | 62.6 (≈ 105 µM) | 22.7 (≈ 38.3 µM) | 50.3 | 88 | 41.6 | 90.8 | 1.97 (≈ 3.32 µM) | 64.3 | 97.9 | 40.7 (≈ 68.6 µM) | 61.6 | 96.3 | 10.3 (≈ 17.4 µM) | inhibition at 10 µM [14]: 40.5%; inhibition at 100 µM [14]: 86%; LD50 (Acute Toxicity Study): 2840 mg/kg; inhibition at 10 µM [15]: 51.3%; inhibition at 100 µM [15]: 86.5%; inhibition at 10 µM [16]: 48.1%; inhibition at 100 µM [16]: 86.1%; inhibition at 10 µM [17]: 62.7%; inhibition at 100 µM [17]: 99.5%; The inhibition ratio of the compound on Aurora B(%) (aurora kinase B; 40 μM): 54.6%; The inhibition ratio of the compound on Aurora B(%) (aurora kinase B; 200 μM): 93.7%; IC50 [18]: 7.83 µg/mL (≈ 13.2 µM)
